Entries after “also recorded” stand apart in the source; their conditions may differ. No end group written: not given here.
Tests used:
[1] = system: S. mutans wild-type UA159; assay: S. mutans acid resistance assay (growth in THYE at pH 7.5 and pH 5.5); assay type: cell-based, Streptococcus mutans; conditions: 5 μg/ml of peptide analog; for Growth (pH 7.5): THYE pH 7.5; for Acid resistance (pH 5.5): growth in THYE pH 5.5
Method: The effect of peptides on acid tolerance was evaluated by assessment of growth in THYE at pH 7.5 and pH 5.5. Overnight S. mutans wild-type UA159 cells were diluted (1:20) with prewarmed THYE broth and incubated at 37° C. in air with 5% CO2 until an OD600 of approximately 0.4 was reached. A 20-fold dilution was made into 400 μl of either THYE pH 7.5 or THYE pH 5.5 broth containing different concentrations (0, 0.1, 0.5, 2, and 5 μg per ml) of peptide analogs and added in the individual wells of a 100-well Bioscreen C plate in triplicate. Wells without cells were used as blank controls. A Bioscreen microbiology reader (Labsystems, Helsinki, Finland) was employed to continuously grow cells and measure cell growth for 16 h at 37° C. Measurements were taken every 20 min with shaking to prevent cell aggregation.

[2] = system: S. mutans wild-type UA159; assay: S. mutans biofilms formed on polystyrene microtiter plates (b), SDM-glucose, safranin (first study); assay type: cell-based, Streptococcus mutans; conditions: 5 μg/ml of peptide analog; ↓ = reduced biomass compared to biofilm grown in presence of wild-type CSP
Method: Biofilms were developed in 96-well polystyrene microtiter plates. […] Wells without cells were used as blank controls. […] After the incubation, the planktonic cells were carefully removed and the plates were air dried overnight. The plates were then stained with 0.01% (wt/vol) safranin for 10 min, rinsed with sterile distilled water and air dried. Biofilms were quantified by measuring the absorbance of stained biofilms at 490 nm with a microplate reader (model 3550; Bio-Rad Laboratories, Richmond, Calif.).

S. sobrinus = assay: Growth and biofilm formation on polystyrene microtiter plates, crystal violet; assay type: cell-based, Streptococcus sobrinus; conditions: for Biofilm formation: additional studies
Method: (§1) They were grown in Todd-Hewitt broth containing 0.3% yeast extract (THYE) at pH 5.5 or 7.5. […] In liquid media, cultures were incubated in closed screw-cap tubes without agitation at 37° C. in an anaerobic chamber (5% CO2).
(§2) Wells without cells were used as blank controls.

S. sanguis = assay: as above; assay type: cell-based, Streptococcus sanguis; conditions: for Biofilm formation: additional studies
Method: as §1, §2

S. gordonii = assay: as above; assay type: cell-based, Streptococcus gordonii; conditions: for Biofilm formation: additional studies
Method: as §1, §2

S. oralis = assay: as above; assay type: cell-based, Streptococcus oralis; conditions: for Biofilm formation: additional studies
Method: as §1, §2

S. mitis = assay: as above; assay type: cell-based, Streptococcus mitis; conditions: for Biofilm formation: additional studies
Method: as §1, §2

S. pneumoniae = assay: as above; assay type: cell-based, Streptococcus pneumoniae; conditions: for Biofilm formation: additional studies
Method: as §1, §2

[3] = system: mixed culture of the above Streptococcus spp.; assay: Mixed culture biofilm formation; assay type: cell-based; conditions: data not shown
Source text: as §2

[4] = system: S. mutans wild-type UA159; assay: S. mutans competence assay (genetic transformation with plasmid pDL289); assay type: cell-based, Streptococcus mutans; conditions: 5 μg/ml of peptide analog; for Transformation efficiency (vs no CSP): compared with natural transformation without exogenous CSP, 'no effect' = no significant difference by comparison with CSP; for Transformation efficiency (vs 5 μg CSP): compared with wild-type S. mutans CSP (5 μg CSP)
Method: To determine if the peptide analogs had any impact on the development of genetic competence, S. mutans UA159 wild-type cells were assayed for genetic transformation. Overnight cultures of S. mutans UA159 were diluted (1:20) with prewarmed THYE broth and incubated at 37° C. in air with 5% CO2 until an optical density (OD) of approximately 0.1 at 600 nm was reached. The culture was then divided into six aliquots containing 1 μg/ml of plasmid pDL289 and different concentrations (0, 0.1, 0.5, 2, and 5 μg per ml) of peptide analogs. The cultures were incubated at 37° C. in air with 5% CO2 for 2.5 h, gently sonicated for 10 s to disperse the streptococcal chains, and spread on THYE plates containing kanamycin. Plates were incubated at 37° C. in air with 5% CO2 for 48 h. Total recipient cells were counted by spreading serial dilutions on THYE agar plates without antibiotic. Transformation efficiency was expressed as the percentage of kanamycin resistant transformants over the total number of recipient cells.

Row | Substance | Growth (pH 7.5) [1] | Acid resistance (pH 5.5) [1] | Bioflim formation (SDM-glucose) [2] | further results
1 | A2: S. mutans CSP analog, 5th residue removed from C′ (SGSLSTFFRLFNASFTQALGK; E2 peptide analog) | no effect | significant decrease in cell growth | no effect | 
2 | D1: S. mutans CSP analog, 4th residue removed from N′ (SGSLSTFFRLFNRSFTQLGK; H1 peptide analog) | ↓growth | growth | no effect | 
3 | F1: S. mutans CSP analog, 2nd residue removed from C′ (SGSLSTFFVLFNRSFTQALGK; B2 peptide analog) | diminution of cell growth | diminution of cell growth |  | Biofilm formation (S. sobrinus): significantly reduce biofilm formation; Biofilm formation (S. sanguis): significantly reduce biofilm formation; Biofilm formation (S. gordonii): significantly reduce biofilm formation; Biofilm formation (S. oralis): significantly reduce biofilm formation; Biofilm formation (S. mitis): significantly reduce biofilm formation; Biofilm formation (S. pneumoniae): significantly reduce biofilm formation
4 | SGSLSTFFRLFNASFTQALGK [E2] | no effect; also recorded: without affecting the cell growth | significant decrease in cell growth; also recorded: inhibited cell growth |  | Growth (S. sobrinus; 5 μg/ml): inhibitory effects; Biofilm formation (S. sobrinus): significantly reduce biofilm formation; Growth (S. sanguis; 5 μg/ml): inhibitory effects; Biofilm formation (S. sanguis): significantly reduce biofilm formation; Growth (S. gordonii; 5 μg/ml): inhibitory effects; Biofilm formation (S. gordonii): significantly reduce biofilm formation; Growth (S. oralis; 5 μg/ml): inhibitory effects; Biofilm formation (S. oralis): significantly reduce biofilm formation; Growth (S. mitis; 5 μg/ml): inhibitory effects; Biofilm formation (S. mitis): significantly reduce biofilm formation; Growth (S. pneumoniae; 5 μg/ml): inhibitory effects; Biofilm formation (S. pneumoniae): significantly reduce biofilm formation; Mixed culture biofilm formation [3]: significant inhibitory effect
5 | E1: S. mutans CSP analog, 5th residue removed from N′ (SGSLSTFFRLFNRSFTALGK; A2 peptide analog) | ↓growth | growth | no effect | 
6 | SGSLSTFFRLFNVSFTQALGK [D2, S. mutans CSP analog, substitution of 2nd R residue with V] | no effect | significant decrease in cell growth | no effect | 
7 | G1: S. mutans CSP analog, 3rd residue removed from C′ (SGSLSTFFALFNRSFTQALGK; C2 peptide analog) | ↓growth | growth |  | 
8 | IH-2: S. mutans CSP analog, 1st residue removed from C′ (SGSLTFFRLFNRSFTQALGK; E1 peptide analog) | ↓growth | growth | no effect | Transformation efficiency (vs no CSP) [4]: no effect; Transformation efficiency (vs 5 μg CSP) [4]: no significant effect
9 | SGSLSTFFRLFNRSFTQALGV [F2, S. mutans CSP analog, substitution of K residue with V] | diminution of cell growth | diminution of cell growth |  | 
10 | B1: S. mutans CSP analog, 2nd residue removed from N′ (SGSLSTFFRLFNRSFTQALK; F1 peptide analog) | ↓growth | growth | no effect | Transformation efficiency (vs no CSP) [4]: no effect; Transformation efficiency (vs 5 μg CSP) [4]: no significant effect
11 | C1: S. mutans CSP analog, 3rd residue removed from N′ (SGSLSTFFRLFNRSFTQAGK; G1 peptide analog) | ↓growth | growth | no effect | Transformation efficiency (vs no CSP) [4]: no effect; Transformation efficiency (vs 5 μg CSP) [4]: no significant effect
12 | SGTLSTFFRLFNRSFTQALGK [B3] | no effect | significant decrease in cell growth |  | Biofilm formation (S. sobrinus): significantly reduce biofilm formation; Biofilm formation (S. sanguis): significantly reduce biofilm formation; Biofilm formation (S. gordonii): significantly reduce biofilm formation; Biofilm formation (S. oralis): significantly reduce biofilm formation; Biofilm formation (S. mitis): significantly reduce biofilm formation; Biofilm formation (S. pneumoniae): significantly reduce biofilm formation
13 | SGSLSTFFRLFNRSFTQALGA [G2, S. mutans CSP analog, substitution of K residue with A] | diminution of cell growth | diminution of cell growth |  | 
14 | SGSLSTFFVLFNRSFTQALGK (SGSLSTFFRLFNRSFTQALGV; F2 peptide analog) [B2, S. mutans CSP analog, substitution of 1st R residue with V] | no effect | significant decrease in cell growth | no effect | 
15 | IH-1: S. mutans CSP analog, 1st residue removed from N′ (SGSSTFFRLFNRSFTQALGK; D1 peptide analog) | ↓growth | growth | no effect | Transformation efficiency (vs no CSP) [4]: no effect^a; Transformation efficiency (vs 5 μg CSP) [4]: no significant effect
16 | SGSLSTFFALFNRSFTQALGK (SGSLSTFFRLFNRSFTQALGA; G2 peptide analog) [C2, S. mutans CSP analog, substitution of 1st R residue with A] | no effect | significant decrease in cell growth | no effect | Biofilm formation (S. sobrinus): significantly reduce biofilm formation; Biofilm formation (S. sanguis): significantly reduce biofilm formation; Biofilm formation (S. gordonii): significantly reduce biofilm formation; Biofilm formation (S. oralis): significantly reduce biofilm formation; Biofilm formation (S. mitis): significantly reduce biofilm formation; Biofilm formation (S. pneumoniae): significantly reduce biofilm formation

Source: patent publication US7556807B2, “Signal peptides, nucleic acid molecules and methods for treatment of caries” (priority 2001, dated 2009)
